Experimental data taken from patent publication US20040142971A1, “BENZOTHIOPHENE COMPOUNDS HAVING ANTIINFECTIVE ACTIVITY” (GeneSoft, Inc., priority 2001, published 2004).

Assays:
Test in all cases: MIC, NCCLS broth microdilution
[1] = system: S. aureus ATCC 27660 (methicillin resistant strain, MRSA); assay type: cell-based, Staphylococcus aureus; conditions: D = S. aureus ATCC 27660
From the text: (§1) In vitro biological activity data were collected for a variety of microorganisms, including Bacillus cereus (ATCC 11778), Staphylococcus aureus (ATCC 27660 (a methicillin resistant strain (MRSA), ATCC 33591 and ATCC 43300); ATCC 13709, a methicillin sensitive strain (MSSA)); Streptococcus pneumoniae (ATCC 51422, a penicillin resistant strain (PRSP)), Enterococcus faecium (ATCC 51559, a vancomycin resistant strain (VRE)), and Staphylococcus epidermidis (ATCC 700586, a methycillin resistant strain (MRSE)). Additionally, antifungal activity data were collected for Candida albicans (ATCC 38247). Minimal inhibition concentrations (MIC's) were determined using the National Committee for Clinical Laboratory Standards (NCCLS) broth microdilution assay in microtiter plates, as set forth in: (1) the guidelines of the National Committee for Clinical Laboratory Standards (NCCLS) Document M7-A4 (NCCLS, 1997); (2) the guidelines of the National Committee for Clinical Laboratory Standards (NCCLS) Document M11-A4 (NCCLS, 1997); and (3) the guidelines and reference method of the National Committee for Clinical Laboratory Standards (NCCLS) Document M27-T (NCCLS, 1995). For antifungal essays, the method recommended in Murray, PR., 1995 Manual of Clinical Microbiology (ASM Press, Washington, D.C.), was employed.

[2] = system: S. aureus ATCC 13709 (methicillin sensitive strain, MSSA); assay type: cell-based, Staphylococcus aureus; conditions: C = S. aureus ATCC 13709
From the text: as §1

B. Cereus ATCC 11778 = assay type: cell-based, Bacillus cereus; conditions: A = B. Cereus ATCC 11778
From the text: as §1

S. aureus ATCC 33591 = assay type: cell-based, Staphylococcus aureus; conditions: E = S. aureus ATCC 33591
From the text: as §1

[3] = system: S. epidermidis ATCC 700586 (methycillin resistant strain, MRSE); assay type: cell-based, Staphylococcus epidermidis; conditions: G = S. epidermidis ATCC 700586
From the text: as §1

[4] = system: E. faecium ATCC 51559 (vancomycin resistant strain, VRE); assay type: cell-based, Enterococcus faecium; conditions: B = E. faecium ATCC 51559
From the text: as §1

Minimum Inhibitory Concentration (MIC) [3]	Minimum Inhibitory Concentration (MIC) [4]	Structure (SMILES)	Minimum Inhibitory Concentration (MIC) [1]	Minimum Inhibitory Concentration (MIC) [2]	Minimum Inhibitory Concentration (MIC) (B. Cereus ATCC 11778)	Minimum Inhibitory Concentration (MIC) (S. aureus ATCC 33591)
		Cn1cc(NC(=O)c2cc(NC(=O)c3sc4ccccc4c3Cl)cn2C)cc1C(=O)NCCN1CCC(O)CC1 [Ib-20a]	+++ (+++ = MIC ≦ 4)	+++ (+++ = MIC ≦ 4)	+++ (+++ = MIC ≦ 4)	
		Cn1cc(NC(=O)c2cc(NC(=O)c3cc(NC(=O)c4sc5ccccc5c4Cl)cn3C)cn2C)cc1C(=O)NCC[N+]1(C)CCOCC1 [Ib-20b]	+++ (+++ = MIC ≦ 4)	+++ (+++ = MIC ≦ 4)	+++ (+++ = MIC ≦ 4)	+++ (+++ = MIC ≦ 4)
		Cc1ccc2c(Cl)c(C(=O)Nc3cc(C(=O)Nc4cc(C(=O)Nc5cc(C(=O)NCCN6CCOCC6)n(C)c5)n(C)c4)n(C)c3)sc2c1 [Ib-20c]	+++ (+++ = MIC ≦ 4)	+++ (+++ = MIC ≦ 4)	+++ (+++ = MIC ≦ 4)	+++ (+++ = MIC ≦ 4)
		Cn1cc(NC(=O)c2sc3cc4c(cc3c2Cl)OCO4)cc1C(=O)NCCN1CCOCC1 [Ib-20f]	+++ (+++ = MIC ≦ 4)	+++ (+++ = MIC ≦ 4)	+++ (+++ = MIC ≦ 4)	+++ (+++ = MIC ≦ 4)
		CCN(CC)CCNC(=O)c1cc(NC(=O)c2cc(NC(=O)c3cc(NC(=O)c4sc5cc6c(cc5c4Cl)OCO6)cn3C)cn2C)cn1C [Ib-20h]	+++ (+++ = MIC ≦ 4)	+++ (+++ = MIC ≦ 4)	+++ (+++ = MIC ≦ 4)	+++ (+++ = MIC ≦ 4)
		Cn1cc(NC(=O)c2cc(NC(=O)c3cc(NC(=O)c4sc5cc6c(cc5c4Cl)OCO6)cn3C)cn2C)cc1C(=O)NCCN1CCSCC1 [Ib-20i]	+++ (+++ = MIC ≦ 4)	+++ (+++ = MIC ≦ 4)	+++ (+++ = MIC ≦ 4)	
		Cn1cc(NC(=O)c2cc(NC(=O)c3cc(NC(=O)c4sc5cc([N+](=O)[O-])ccc5c4Cl)cn3C)cn2C)cc1C(=O)NCCN1CCOCC1 [Ib-20j]	+++ (+++ = MIC ≦ 4)	+++ (+++ = MIC ≦ 4)	+++ (+++ = MIC ≦ 4)	+++ (+++ = MIC ≦ 4)
		CN(C)c1ccc2c(Cl)c(C(=O)Nc3cc(C(=O)Nc4cc(C(=O)Nc5cc(C(=O)NCCN6CCOCC6)n(C)c5)n(C)c4)n(C)c3)sc2c1 [Ib-20k]	+++ (+++ = MIC ≦ 4)	+++ (+++ = MIC ≦ 4)	>32 mg/L	
		Cn1cc(NC(=O)c2cc(NC(=O)c3cc(NC(=O)c4sc5cc6c(cc5c4Cl)OCO6)cn3C)cn2C)cc1C(=O)NCCN1CCCCC1 [Ib-20l]	+++ (+++ = MIC ≦ 4)	+++ (+++ = MIC ≦ 4)	+++ (+++ = MIC ≦ 4)	+++ (+++ = MIC ≦ 4)
		Cn1cc(NC(=O)c2sc3cc4c(cc3c2Cl)OCO4)cc1C(=O)NCCN1CCCCC1 [Ib-20n]	+++ (+++ = MIC ≦ 4)	+++ (+++ = MIC ≦ 4)	+++ (+++ = MIC ≦ 4)	+++ (+++ = MIC ≦ 4)
		Cn1cc(NC(=O)c2sc3cc4c(cc3c2Cl)OCO4)cc1C(=O)NCCN1CCC(F)(F)CC1 [Ib-20q]	+++ (+++ = MIC ≦ 4)	+++ (+++ = MIC ≦ 4)	>32 mg/L	+++ (+++ = MIC ≦ 4)
		Cn1cc(NC(=O)c2cc3cc4c(cc3s2)OCO4)cc1C(=O)NCCN1CCOCC1 [Ib-20t]	+++ (+++ = MIC ≦ 4)	+++ (+++ = MIC ≦ 4)	+++ (+++ = MIC ≦ 4)	+++ (+++ = MIC ≦ 4)
		Cn1cc(NC(=O)c2cc(NC(=O)c3cc4cc5c(cc4s3)OCO5)cn2C)cc1C(=O)NCCN1CCOCC1 [Ib-20u]	+++ (+++ = MIC ≦ 4)	+++ (+++ = MIC ≦ 4)	+++ (+++ = MIC ≦ 4)	+++ (+++ = MIC ≦ 4)
		Cn1cc(NC(=O)c2cc(NC(=O)c3cc(NC(=O)c4cc5cc6c(cc5s4)OCO6)cn3C)cn2C)cc1C(=O)NCCN1CCOCC1 [Ib-20v]	+++ (+++ = MIC ≦ 4)	+++ (+++ = MIC ≦ 4)	+++ (+++ = MIC ≦ 4)	+++ (+++ = MIC ≦ 4)
		Cn1cc(NC(=O)c2cc3cc4c(cc3s2)OCO4)cc1C(=O)NCCN1CCSCC1 [Ib-20w]	+++ (+++ = MIC ≦ 4)	+++ (+++ = MIC ≦ 4)	+++ (+++ = MIC ≦ 4)	+++ (+++ = MIC ≦ 4)
		Cn1cc(NC(=O)c2cc3cc4c(cc3s2)OCO4)cc1C(=O)NCCN1CCCC1 [Ib-20x]	+++ (+++ = MIC ≦ 4)	+++ (+++ = MIC ≦ 4)	+++ (+++ = MIC ≦ 4)	+++ (+++ = MIC ≦ 4)
		Cn1cc(NC(=O)c2cc(NC(=O)c3cc(NC(=O)c4cc5ccccc5cn4)cs3)cn2C)cc1C(=O)NCCN1CCOCC1 [Ib-51]	+++ (+++ = MIC ≦ 4)	+++ (+++ = MIC ≦ 4)	+++ (+++ = MIC ≦ 4)	
		Cn1cc(NC(=O)c2cc3ccccc3cn2)cc1C(=O)Nc1cc(C(=O)Nc2cc(C(=O)NCCN3CCOCC3)ns2)n(C)c1 [Ib-52]	++ (++ = MIC between 4 and 12)	+++ (+++ = MIC ≦ 4)	+++ (+++ = MIC ≦ 4)	
		CCN(CC)CCNC(=O)c1cc(NC(=O)c2cc(NC(=O)c3cc(NC(=O)c4cc5ccccc5cn4)cn3C)cn2C)sn1 [Ib-53]	+ (+ = MIC from 12 to 32, inclusive)	++ (++ = MIC between 4 and 12)	++ (++ = MIC between 4 and 12)	
		Cn1cc(NC(=O)c2cc3ccccc3cn2)cc1C(=O)Nc1cc(C(=O)Nc2c[nH]c(C(=O)NCCN3CCSCC3)c2)n(C)c1 [Ib-54]	+ (+ = MIC from 12 to 32, inclusive)	+ (+ = MIC from 12 to 32, inclusive)	++ (++ = MIC between 4 and 12)	
		Cn1cc(NC(=O)c2cc(NC(=O)c3cc(NC(=O)c4cc5ccccc5cn4)cn3C)cn2CCN2CCOCC2)cc1C(=O)NCCN1CCOCC1 [Ib-57]	+++ (+++ = MIC ≦ 4)	+++ (+++ = MIC ≦ 4)	+++ (+++ = MIC ≦ 4)	+++ (+++ = MIC ≦ 4)
		Cn1cc(NC(=O)c2cc3ccccc3cn2)cc1C(=O)Nc1cc(C(=O)Nc2cn(C)c(C(=O)NCCN3CCOCC3)n2)n(C)c1 [Ib-58]	+++ (+++ = MIC ≦ 4)	+++ (+++ = MIC ≦ 4)	+++ (+++ = MIC ≦ 4)	+++ (+++ = MIC ≦ 4)
		CN(C)CCSCCn1cc(NC(=O)c2cc3ccccc3cn2)cc1C(=O)Nc1cc(C(=O)Nc2ccc3cnccc3c2)n(C)c1 [Ib-73]	+++ (+++ = MIC ≦ 4)	+++ (+++ = MIC ≦ 4)	+++ (+++ = MIC ≦ 4)	+++ (+++ = MIC ≦ 4)
+++ (+++ = MIC ≦ 4)	+++ (+++ = MIC ≦ 4)	Cn1cc(NC(=O)c2cc(NC(=O)c3cc(NC(=O)c4cc5ccccc5cn4)c[nH]3)cn2C)cc1C(=O)NCCc1ccncc1 [Ib-76]	+++ (+++ = MIC ≦ 4)	+++ (+++ = MIC ≦ 4)	+++ (+++ = MIC ≦ 4)	+++ (+++ = MIC ≦ 4)
		Cn1cc(NC(=O)c2cc(NC(=O)c3cc(NC(=O)c4cc5ccccc5cn4)c[nH]3)cn2C)cc1C(=O)NCCN1CCC(F)(F)CC1 [Ib-78]	+++ (+++ = MIC ≦ 4)	+++ (+++ = MIC ≦ 4)	+++ (+++ = MIC ≦ 4)	+++ (+++ = MIC ≦ 4)
		Cn1cc(NC(=O)c2cc3ccccc3cn2)cc1C(=O)Nc1cc(C(=O)Nc2ccc3sc(C(=O)NCCN4CCOCC4)cc3c2)n(C)c1 [Id-1]			>32 mg/L	
